This is an account of results in patent US20260297679A1, “ASSAYS FOR MONITORING INHIBITION OF RNA HELICASE DHX9” (ACCENT THERAPEUTICS, INC., priority 2023, published 2026).

Common to all, as to type: cell-based
One assay has as its system human PBMCs. In words: proliferation of human PBMCs (Cell-Titer Glo 2.0). The conditions noted are these: Compound 1 0.01 μM to 10 μM, 10 days; FIG. 8B. The method, then: Next, the proliferation of PMBCs was examined following treatment with DHX9 inhibitor using the following assay.
Human PBMCs were thawed from a frozen cryotube in a 37° C. water bath and transferred to a flask with medium X-Vivo 15 supplemented with 5% Fetal Bovine Serum (FBS), 1% PenStrep, and 1% Glutamax. Flasks were incubated at 37 C for 30 minutes. PBMCs were harvested from flask and counted. PBMCs were diluted in medium and added to 96 well plates at 100,000 PBMCs per well. A stimulus mixture containing IL-15 at 1 ng/well, IL-21 at 5 ng/well, and CD40L at 5 ng/well was added to each well. Test compounds were prepared in DMSO stock solution and serially diluted. Compound (0.1% final DMSO concentration) was added to each well. DMSO was used as a negative control (high control, HC) and staurosporine was used a positive control (low control, LC). Plates were incubated at 37 C for 0, 2, 4, 6, 8, 10 days. Every other day, medium was replenished with stimulus and diluted compounds.
At each CTG time point, plate was removed from incubator and Cell-Titer Glo 2.0 reagent was added to each well according to manufacturer's (Promega) protocol and detected on an Envision. The inhibition activity was calculated following the formula below:
% Inhibition=100×(ReadoutHC−ReadoutSample)/(ReadoutHC−ReadoutLC)
PBMCs were exposed to Compound 1 at concentrations ranging from 0.01 μM to 10 μM for 10 days. […]

The subject of the next assay is human PBMC. In words: circular and linear BRIP1 mRNA in fresh human PBMC (whole blood treated) by qPCR. The note with it: 24 hours, varying concentrations, FIGS. 9A-9D. The method, then: This study was conducted to evaluate the circular format of BRIP1 mRNA in fresh human PBMC cells by qPCR.
Human whole blood was obtained from Research Blood Components. Blood of each donor was aliquoted into vacutainer tubes containing Acid Citrate Dextrose (ACD).
Test compounds were prepared in DMSO stock solution and serially diluted. Compound (0.1% final DMSO concentration) was added to vacutainer tubes containing human whole blood. Tubes were placed in tube rotator and incubated at 37 C for 24 hours.
PBMCs were isolated from human whole blood after compound treatment by density gradient centrifugation using Ficoll-Paque Plus. RNA was extracted from PBMCs using RNeasy Plus Kits according to the manufacturer's (Qiagen) protocol. cDNA was reverse transcribed using RT^2 First Strand Kit according to the manufacturer's (Qiagen) protocol. […]
Data analysis was performed by using the QuantStudio Thermocycler software to determine threshold Ct values. ΔCt for circBRIP1 or linBRIP1 was calculated by normalizing the target gene Ct to the GAPDH housekeeping gene Ct for each sample. The inhibition activity was calculated by the following formula, whereas: […]

Assay [1] deals with breast, ovarian, and lung cell lines. The assay is described as follows: circBRIP1 levels in breast, ovarian, and lung cell lines. Here is the method:
Cells were plated at pre-determined cell densities in 384-well cell culture plates and incubated overnight in 37° C. at 5% CO2. […] Using TaqMan Multiplex Mastermix and thermal cycle conditions for the Quant Studio Thermocycler, qPCR was carried out as described above to quantify the level of circBRIP1.
Data analysis was performed by using the QuantStudio Thermocycler software to determine threshold Ct values. ΔCt for circBRIP1 is calculated by normalizing the target gene Ct to the GAPDH housekeeping gene Ct for each sample.
The inhibition activity (% Vehicle) is calculated by the following formulas, whereas: […]
An EC50 was then calculated using a 4-parameter logistic nonlinear regression model in Scigilian Analyze or GraphPad Prism, floating both the top and bottom parameters. […]

`Cc1cccnc1-c1csc(C(=O)Nc2cc(Cl)cc(NS(C)(=O)=O)c2)c1` [Compound 1, N-(3-chloro-5-methanesulfonamidophenyl)-4-(3-methylpyridin-2-yl)thiophene-2-carboxamide]: the “proliferation of PBMCs” value in the assay with human PBMCs was “did not inhibit proliferation of PBMCs”. In addition, in the assay on human PBMC, the “human circBRIP1 in PBMCs of donor blood” value was “induced the presence of human circBRIP1 in a dose-responsive manner” and the “linear BRIP1 in PBMCs of donor blood” value was “not significantly changed”. The circBRIP1 levels entry in assay [1] is “upregulated in breast, ovarian, and lung cell lines”.
